Experimental findings from PubChem BioAssay (NCI) are described below.

Assay in all cases: growth of human tumour cells (NCI), 48 h
Test [1] deals with CCRF-CEM leukemia.
Test [2] deals with HOP-62 NSCLC.
The test system of test [3] is HOP-92 NSCLC.
Test [4] has as its system M14 melanoma.
Test [5] deals with OVCAR-5 ovarian.
Test [6] has as its system T-47D breast.
Test [7] deals with UACC-257 melanoma.
For test [8], the system named is UO-31 renal.
The subject of test [9] is MOLT-4 leukemia.
For test [10], the system named is SW-620 colon.

SMILES strings stand for the structures.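 In this assay, cells in 96-well plates receive the compound at five concentrations for 48 hours. Endpoints are linearly interpolated between the surrounding concentrations. At the GI50, growth is halved. TGI marks complete inhibition of growth.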 Non-standard residues stand in square brackets, D forms with d. Residues, ends and D or L forms follow the SMILES beside them. *: point of attachment. ONb = O=[N+]([O-])c1ccc(CO*)cc1; AllylGly = C=CC[CH](N)C(=O)O; Boc = CC(C)(C)OC(=O)*

For the molecule `COc1cc2c3c(n(C)c(=O)c2cc1OC)-c1cc2c(cc1/C3=C\CCCCCN)OCO2`, the GI50 in test [1] was 0.0121 µM; in test [2] it was 0.612 µM; in [3] it was 4.03 µM; in test [4], 2.55 µM; in test [5], 8.66 µM; in [6], 5.61 µM. Moreover, the GI50 in test [7] was 16.8 µM; in test [8] it was 2.08 µM. The TGI in [1] is 0.0641 µM; in test [2], greater than 45.9 µM; in test [3] it was 29 µM; in [4], greater than 46.6 µM; in test [5], greater than 52.9 µM; in test [6], greater than 55.5 µM. For the same molecule, the TGI in [7] was 45.9 µM; in test [8] it was greater than 100 µM.

Consider `COc1ccc2cc(C(=O)/C=C/c3cc(OC)c(OC)c(OC)c3)ccc2c1`, for which the GI50 is greater than 50 µM in [1]; 9.88 µM in test [2]; 21.9 µM in test [3]; 6.52 µM in test [4]; 2.91 µM in test [9]; 1.51 µM in test [10]. Also, the GI50 in test [6] was greater than 50 µM; in [8], 7.44 µM. The TGI is greater than 50 µM in test [1]; 20.8 µM in [2]; greater than 50 µM in [3]; 16.1 µM in test [4]; greater than 50 µM in test [9]; 6.91 µM in test [10]. In addition, the values for the TGI in test [6] and in test [8] were greater than 50 µM and 15.5 µM, respectively.

Consider `N=C1C(c2nc(-c3ccc(Br)cc3)cs2)=C(O)CN1Cc1cccnc1`, for which the GI50 in [1] was 4.28 µM; in test [2] it was 17.1 µM; in [3], 22.2 µM; in test [9] it was 4.39 µM; in test [5], 2.66 µM; in [10] it was 4.75 µM. For the same molecule, the GI50 in test [6] is 4.89 µM; in test [7], 27.8 µM; in [8] it was 19.7 µM. Besides, the TGI is 65.8 µM in [1]; greater than 100 µM in test [2]; 84.1 µM in test [3]; 42.7 µM in [9]; 42.8 µM in test [5]; 26.7 µM in [10]. Besides, the TGI in test [6] is 56.1 µM; in [7], greater than 100 µM; in [8], greater than 100 µM.

Take `N#CCC1COc2ccccc2O1` (centres undefined): the TGI in test [1], in [2], in test [3], in test [4], in [9] and in test [5] was greater than 10 µM in each case. The TGI in test [10], in test [6] and in test [7] was greater than 10 µM each time.

With `N#Cc1c(Sc2ccccc2N)cccc1Sc1ccccc1N`, the GI50 in [1] was 20.9 µM; in [3], 31 µM; in [4], 62.6 µM; in [9], 22.2 µM; in test [10] it was 79.8 µM; in [6], 51.7 µM. In addition, the values for the GI50 in test [7] and in [8] were 21.3 µM and 7.56 µM, respectively.

As for `COc1ccc(-c2nc3sc(C)cn3c2/C=C/C(=O)c2cc(OC)c(OC)c(OC)c2)cc1`, the GI50 in test [1] is 3.06 µM; in test [2], 4.28 µM; in test [4], 3.97 µM; in test [5] it was greater than 100 µM; in test [6], 2.42 µM; in test [7] it was 2.49 µM. In addition, in test [8], the GI50 is 2.27 µM. The TGI in test [1] was greater than 100 µM; in [2], greater than 100 µM; in test [4] it was greater than 100 µM; in test [5], greater than 100 µM; in test [6] it was 8.94 µM; in [7] it was 6.37 µM. Moreover, the TGI in [8] was determined as 7.61 µM.

Regarding `C=CCC(NC(=O)OC(C)(C)C)C(=O)NC(CCC(=O)OCc1ccc([N+](=O)[O-])cc1)C(N)=O` (centres undefined) (Boc-[AllylGly]-Glu(ONb)-NH2; configuration not given here), the GI50 is 31.8 µg/mL in test [1]; 13.3 µg/mL in [3]; 33 µg/mL in test [4]; 64.1 µg/mL in [5]; 95.9 µg/mL in [10]; 77 µg/mL in test [6]. For the same molecule, the values for the GI50 in test [7] and in test [8] were 16.2 µg/mL and 19.7 µg/mL, respectively. Besides, the TGI in [3] came out at 26.5 µg/mL; in test [7], 31.7 µg/mL; in test [8], 38.5 µg/mL.

Take `CCC[CH2][Sn-]([CH2]CCC)([CH2]CCC)[O]c1cc(Cl)c(Cl)cc1Cl`: the GI50 is 0.228 µM in [2]; 0.106 µM in test [3]; 0.167 µM in [9]; 0.207 µM in [10]; 0.137 µM in test [6]. Further, the TGI in test [2] is 0.507 µM; in test [3], 0.395 µM; in test [9], 0.545 µM; in test [10] it was 0.44 µM; in [6], 0.35 µM.

For the molecule `COC(=O)N[C@H]1CCc2c(Br)c(OC)c(OC)c(OC)c2-c2ccc(SC)c(=O)cc21`, the GI50 was less than 0.01 µM in test [1]; less than 0.01 µM in test [2]; less than 0.0171 µM in test [3]; less than 0.01 µM in [4]; less than 0.01 µM in test [9]; less than 0.01 µM in test [5]. Moreover, the GI50 in [10] was less than 0.01 µM; in test [7], 11.4 µM; in test [8] it was less than 0.0281 µM. For the same molecule, the TGI in test [1] is 24.9 µM; in test [2] it was greater than 100 µM; in [3], 5.17 µM; in test [4], 8.53 µM; in test [9], 21.7 µM; in test [5], greater than 39.6 µM. Besides, the TGI in test [10] stood at 19.7 µM; in test [7], 61.2 µM; in test [8], 19 µM.

`COc1ccc(Cl)cc1Nc1nc(C(F)(F)F)ccc1C(=O)N/N=C/c1c(Cl)cccc1Cl`: the GI50 in test [1] is 1.04 µM; in test [2], 1.35 µM; in test [3], 3.46 µM; in [9], 2.36 µM; in test [5], greater than 100 µM; in test [6], 4.41 µM. The GI50 in test [7] was greater than 100 µM. Further, the TGI in [1] was 6.17 µM; in [2], greater than 100 µM; in [3], 38.4 µM; in test [9], 10.7 µM; in [5], greater than 100 µM; in test [6], greater than 100 µM. For the same molecule, the TGI in test [7] is greater than 100 µM.
